Source: ChEMBL document CHEMBL4007421, “Discovery and Preclinical Characterization of 3-((4-(4-Chlorophenyl)-7-fluoroquinoline-3-yl)sulfonyl)benzonitrile, a Novel Non-acetylenic Metabotropic Glutamate Receptor 5 (mGluR5) Negative Allosteric Modulator for Psychiatric Indications” (J Med Chem, 2017)

System: Liver
Test: Intrinsic clearance in rat liver microsomes at 2.5 uM assessed per gram of liver
Assay type: ADME, microsome

| Structure (SMILES) | CLint |
| --- | --- |
| Cc1ccc(S(=O)(=O)c2cnc3ccccc3c2-c2ccc(Cl)cc2)cc1 | 17.5 mL/min/g |
| Cc1ccc(S(=O)(=O)c2cnc3ccccc3c2N2CCOCC2)cc1C | 18 mL/min/g |

System: Liver
Test: Intrinsic clearance in human liver microsomes at 2.5 uM assessed per gram of liver
Assay type: ADME, microsome

| Structure (SMILES) | CLint |
| --- | --- |
| COc1ccc(S(=O)(=O)c2cnc3cc(F)ccc3c2-c2ccc(F)cc2)cc1 | 1.71 mL/min/g |
| COc1ccc(S(=O)(=O)c2cnc3c(F)cccc3c2-c2cccc(F)c2)cc1 | 3.03 mL/min/g |
| COc1cccc(-c2c(S(=O)(=O)c3cc(Cl)cc(Cl)c3)cnc3cc(F)ccc23)c1 | 1.51 mL/min/g |
| O=S(=O)(c1ccc(F)cc1)c1cnc2cc(F)ccc2c1-c1ccc(F)cc1 | 1.34 mL/min/g |
| O=S(=O)(c1ccc(F)c(Cl)c1)c1cnc2cc(F)ccc2c1-c1cccc(Cl)c1 | 0.66 mL/min/g |
| O=S(=O)(c1cccc(F)c1)c1cnc2c(F)cccc2c1-c1ccc(Cl)cc1 | 0.62 mL/min/g |
| Cc1ccc(S(=O)(=O)c2cnc3cc(F)ccc3c2-c2ccc(Cl)cc2)cc1C | 7.88 mL/min/g |
| COc1ccc(-c2c(S(=O)(=O)c3cccc(F)c3)cnc3cc(F)ccc23)cc1 | 1.89 mL/min/g |
| O=S(=O)(c1ccc(F)c(Cl)c1)c1cnc2c(F)cccc2c1-c1ccccc1F | 1.39 mL/min/g |
| COc1ccc(S(=O)(=O)c2cnc3cc(F)ccc3c2-c2ccc(Cl)cc2)cc1 | 1.28 mL/min/g |
| COc1ccc(-c2c(S(=O)(=O)c3cc(F)cc(F)c3)cnc3cc(F)ccc23)cc1 | 1.51 mL/min/g |
| O=S(=O)(c1cc(F)cc(F)c1)c1cnc2c(F)cccc2c1-c1cccc(F)c1 | 1.18 mL/min/g |
| O=S(=O)(c1ccc(F)c(F)c1)c1cnc2cc(F)ccc2c1-c1ccccc1F | 0.79 mL/min/g |
| O=S(=O)(c1ccc(F)cc1)c1cnc2c(F)cccc2c1-c1cccc(Cl)c1 | 1.21 mL/min/g |
| COc1cccc(-c2c(S(=O)(=O)c3cc(F)cc(F)c3)cnc3c(F)cccc23)c1 | 2.76 mL/min/g |
| COc1ccc(-c2c(S(=O)(=O)c3ccc(OC)cc3)cnc3cc(F)ccc23)cc1 | 1.18 mL/min/g |
| O=S(=O)(c1ccc(F)c(Cl)c1)c1cnc2cc(F)ccc2c1-c1ccccc1F | 1.07 mL/min/g |
| O=S(=O)(c1cc(Cl)cc(Cl)c1)c1cnc2cc(F)ccc2c1-c1cccc(Cl)c1 | 0.93 mL/min/g |
| O=S(=O)(c1cc(Cl)cc(Cl)c1)c1cnc2c(F)cccc2c1-c1ccccc1F | 0.44 mL/min/g |
| N#Cc1cccc(S(=O)(=O)c2cnc3c(F)cccc3c2-c2ccc(F)cc2)c1 | 0.19 mL/min/g |
| COc1ccc(-c2c(S(=O)(=O)c3cccc(F)c3)cnc3c(F)cccc23)cc1 | 2.48 mL/min/g |
| O=S(=O)(c1cc(Cl)cc(Cl)c1)c1cnc2cc(F)ccc2c1-c1ccccc1F | 0.93 mL/min/g |
| COc1ccc(-c2c(S(=O)(=O)c3cc(F)cc(F)c3)cnc3c(F)cccc23)cc1 | 2.59 mL/min/g |
| N#Cc1cccc(S(=O)(=O)c2cnc3c(F)cccc3c2-c2cccc(Cl)c2)c1 | 1.11 mL/min/g |
| O=S(=O)(c1cccc(F)c1)c1cnc2cc(F)ccc2c1-c1ccc(Cl)cc1 | 0.98 mL/min/g |

| Structure (SMILES) | CLint |
| --- | --- |
| COc1ccc(-c2c(S(=O)(=O)c3ccc(F)c(F)c3)cnc3c(F)cccc23)cc1 | 2.12 mL/min/g |
| O=S(=O)(c1ccc(F)c(F)c1)c1cnc2cc(F)ccc2c1-c1cccc(Cl)c1 | 0.38 mL/min/g |
| O=S(=O)(c1ccc(F)c(F)c1)c1cnc2c(F)cccc2c1-c1ccccc1F | 1.39 mL/min/g |
| O=S(=O)(c1cc(F)cc(F)c1)c1cnc2cc(F)ccc2c1-c1ccc(Cl)cc1 | 0.03 mL/min/g |
| N#Cc1cccc(S(=O)(=O)c2cnc3cc(F)ccc3c2-c2ccccc2F)c1 | 1.39 mL/min/g |
| O=S(=O)(c1cc(Cl)cc(Cl)c1)c1cnc2c(F)cccc2c1-c1ccc(Cl)cc1 | 0.78 mL/min/g |
| O=S(=O)(c1cc(F)cc(F)c1)c1cnc2cc(F)ccc2c1-c1cccc(Cl)c1 | 0.22 mL/min/g |
| O=S(=O)(c1cc(F)cc(F)c1)c1cnc2c(F)cccc2c1-c1ccc(Cl)cc1 | 0.73 mL/min/g |
| O=S(=O)(c1cc(Cl)cc(Cl)c1)c1cnc2c(F)cccc2c1-c1cccc(F)c1 | 1.08 mL/min/g |
| Cc1ccc(S(=O)(=O)c2cnc3cc(F)ccc3c2-c2cccc(Cl)c2)cc1C | 4.01 mL/min/g |
| COc1ccc(S(=O)(=O)c2cnc3cc(F)ccc3c2-c2cccc(F)c2)cc1 | 2.94 mL/min/g |
| COc1ccc(S(=O)(=O)c2cnc3c(F)cccc3c2-c2cccc(OC)c2)cc1 | 2.87 mL/min/g |
| Cc1ccc(S(=O)(=O)c2cnc3cc(F)ccc3c2-c2cccc(F)c2)cc1F | 0.41 mL/min/g |
| O=S(=O)(c1ccc(F)cc1)c1cnc2c(F)cccc2c1-c1cccc(F)c1 | 1.56 mL/min/g |
| O=S(=O)(c1ccc(F)c(Cl)c1)c1cnc2c(F)cccc2c1-c1ccc(Cl)cc1 | 0.01 mL/min/g |
| O=S(=O)(c1cc(F)cc(F)c1)c1cnc2c(F)cccc2c1-c1cccc(Cl)c1 | 0.64 mL/min/g |
| O=S(=O)(c1cccc(F)c1)c1cnc2c(F)cccc2c1-c1cccc(F)c1 | 1.14 mL/min/g |
| COc1ccc(S(=O)(=O)c2cnc3cc(F)ccc3c2-c2ccc(F)cc2)cc1Cl | 1.29 mL/min/g |
| Cc1ccc(S(=O)(=O)c2cnc3c(F)cccc3c2-c2cccc(Cl)c2)cc1F | 3.18 mL/min/g |
| COc1ccc(-c2c(S(=O)(=O)c3ccc(F)cc3)cnc3cc(F)ccc23)cc1 | 1.77 mL/min/g |
| COc1cccc(-c2c(S(=O)(=O)c3cc(F)cc(F)c3)cnc3cc(F)ccc23)c1 | 1.81 mL/min/g |
| COc1ccc(S(=O)(=O)c2cnc3cc(F)ccc3c2-c2cccc(F)c2)cc1Cl | 2.08 mL/min/g |
| O=S(=O)(c1ccc(F)c(Cl)c1)c1cnc2c(F)cccc2c1-c1cccc(F)c1 | 1.23 mL/min/g |
| Cc1ccc(S(=O)(=O)c2cnc3c(F)cccc3c2-c2cccc(F)c2)cc1F | 3.92 mL/min/g |
| COc1cccc(S(=O)(=O)c2cnc3cc(F)ccc3c2-c2cccc(F)c2)c1 | 3.36 mL/min/g |

| Structure (SMILES) | CLint |
| --- | --- |
| COc1ccc(-c2c(S(=O)(=O)c3ccc(F)c(Cl)c3)cnc3cc(F)ccc23)cc1 | 1.08 mL/min/g |
| O=S(=O)(c1cccc(F)c1)c1cnc2cc(F)ccc2c1-c1ccc(F)cc1 | 0.11 mL/min/g |
| COc1ccc(-c2c(S(=O)(=O)c3ccc(C)c(C)c3)cnc3cc(F)ccc23)cc1 | 4.13 mL/min/g |
| O=S(=O)(c1ccc(F)c(F)c1)c1cnc2c(F)cccc2c1-c1cccc(F)c1 | 1.28 mL/min/g |
| N#Cc1cccc(S(=O)(=O)c2cnc3cc(F)ccc3c2-c2cccc(F)c2)c1 | 0.78 mL/min/g |
| COc1cccc(S(=O)(=O)c2cnc3cc(F)ccc3c2-c2cccc(Cl)c2)c1 | 2.97 mL/min/g |
| COc1cccc(-c2c(S(=O)(=O)c3ccc(F)c(F)c3)cnc3cc(F)ccc23)c1 | 1.77 mL/min/g |
| COc1ccc(-c2c(S(=O)(=O)c3cc(Cl)cc(Cl)c3)cnc3cc(F)ccc23)cc1 | 1 mL/min/g |
| N#Cc1cccc(S(=O)(=O)c2cnc3c(F)cccc3c2-c2cccc(F)c2)c1 | 0.34 mL/min/g |
| Cc1ccc(S(=O)(=O)c2cnc3cc(F)ccc3c2-c2cccc(Cl)c2)cc1F | 2.13 mL/min/g |
| COc1ccc(S(=O)(=O)c2cnc3c(F)cccc3c2-c2cccc(Cl)c2)cc1 | 2.75 mL/min/g |
| N#Cc1cccc(S(=O)(=O)c2cnc3cc(F)ccc3c2-c2cccc(Cl)c2)c1 | 0.99 mL/min/g |
| O=S(=O)(c1ccc(F)cc1)c1cnc2cc(F)ccc2c1-c1cccc(F)c1 | 0.95 mL/min/g |
| O=S(=O)(c1ccc(F)c(Cl)c1)c1cnc2cc(F)ccc2c1-c1cccc(F)c1 | 0.25 mL/min/g |
| COc1ccc(S(=O)(=O)c2cnc3cc(F)ccc3c2-c2cccc(Cl)c2)cc1Cl | 1.19 mL/min/g |
| O=S(=O)(c1ccc(F)c(F)c1)c1cnc2cc(F)ccc2c1-c1cccc(F)c1 | 0.6 mL/min/g |
| O=S(=O)(c1cccc(F)c1)c1cnc2cc(F)ccc2c1-c1cccc(F)c1 | 0.24 mL/min/g |
| COc1ccc(-c2c(S(=O)(=O)c3ccc(C)c(F)c3)cnc3c(F)cccc23)cc1 | 3.27 mL/min/g |
| Cc1ccc(S(=O)(=O)c2cnc3cc(F)ccc3c2-c2cccc(F)c2)cc1C | 3.71 mL/min/g |
| COc1cccc(-c2c(S(=O)(=O)c3cccc(C#N)c3)cnc3cc(F)ccc23)c1 | 1.83 mL/min/g |
| O=S(=O)(c1ccc(F)c(Cl)c1)c1cnc2c(F)cccc2c1-c1ccc(F)cc1 | 0.19 mL/min/g |
| COc1cccc(-c2c(S(=O)(=O)c3ccc(C)c(C)c3)cnc3cc(F)ccc23)c1 | 8.78 mL/min/g |
| COc1ccc(-c2c(S(=O)(=O)c3cc(Cl)cc(Cl)c3)cnc3c(F)cccc23)cc1 | 2.11 mL/min/g |
| O=S(=O)(c1ccc(F)c(F)c1)c1cnc2c(F)cccc2c1-c1ccc(F)cc1 | 0.78 mL/min/g |
| COc1cccc(-c2c(S(=O)(=O)c3ccc(OC)c(Cl)c3)cnc3cc(F)ccc23)c1 | 1.71 mL/min/g |

| Structure (SMILES) | CLint |
| --- | --- |
| Cc1ccc(S(=O)(=O)c2cnc3cc(F)ccc3c2-c2ccc(F)cc2)cc1F | 2.33 mL/min/g |
| COc1cccc(-c2c(S(=O)(=O)c3ccc(F)cc3)cnc3c(F)cccc23)c1 | 2.23 mL/min/g |
| COc1cccc(-c2c(S(=O)(=O)c3ccc(C)c(F)c3)cnc3c(F)cccc23)c1 | 4.02 mL/min/g |
| Cc1ccc(S(=O)(=O)c2cnc3cc(F)ccc3c2-c2ccc(F)cc2)cc1C | 9.25 mL/min/g |
| O=S(=O)(c1cc(Cl)cc(Cl)c1)c1cnc2c(F)cccc2c1-c1cccc(Cl)c1 | 1.2 mL/min/g |
| COc1ccc(-c2c(S(=O)(=O)c3ccc(F)c(F)c3)cnc3cc(F)ccc23)cc1 | 1.1 mL/min/g |
| COc1ccc(-c2c(S(=O)(=O)c3cccc(C#N)c3)cnc3cc(F)ccc23)cc1 | 0.92 mL/min/g |
| N#Cc1cccc(S(=O)(=O)c2cnc3c(F)cccc3c2-c2ccc(Cl)cc2)c1 | 0.08 mL/min/g |
| Cc1ccc(S(=O)(=O)c2cnc3ccccc3c2-c2ccc(Cl)cc2)cc1 | 2.12 mL/min/g |
| O=S(=O)(c1cccc(F)c1)c1cnc2c(F)cccc2c1-c1ccccc1F | 0.21 mL/min/g |
| Cc1ccc(S(=O)(=O)c2cnc3c(F)cccc3c2-c2ccc(Cl)cc2)cc1F | 2.2 mL/min/g |
| N#Cc1cccc(S(=O)(=O)c2cnc3c(F)cccc3c2-c2ccccc2F)c1 | 0.66 mL/min/g |
| COc1cccc(-c2c(S(=O)(=O)c3cccc(F)c3)cnc3c(F)cccc23)c1 | 2.6 mL/min/g |
| O=S(=O)(c1cccc(F)c1)c1cnc2c(F)cccc2c1-c1cccc(Cl)c1 | 0.56 mL/min/g |
| COc1ccc(-c2c(S(=O)(=O)c3ccc(OC)cc3)cnc3c(F)cccc23)cc1 | 2.12 mL/min/g |
| COc1ccc(-c2c(S(=O)(=O)c3ccc(F)cc3)cnc3c(F)cccc23)cc1 | 2.41 mL/min/g |
| O=S(=O)(c1cc(F)cc(F)c1)c1cnc2c(F)cccc2c1-c1ccccc1F | 0.09 mL/min/g |
| O=S(=O)(c1ccc(F)c(F)c1)c1cnc2c(F)cccc2c1-c1cccc(Cl)c1 | 1.13 mL/min/g |
| COc1ccc(S(=O)(=O)c2cnc3c(F)cccc3c2-c2ccc(Cl)cc2)cc1 | 1.05 mL/min/g |
| Cc1ccc(S(=O)(=O)c2cnc3ccccc3c2N2CCOCC2)cc1C | 3.37 mL/min/g |
| Cc1ccc(S(=O)(=O)c2cnc3c(F)cccc3c2-c2ccc(F)cc2)cc1F | 2.75 mL/min/g |
| O=S(=O)(c1ccc(F)c(Cl)c1)c1cnc2c(F)cccc2c1-c1cccc(Cl)c1 | 0.18 mL/min/g |
| COc1cccc(-c2c(S(=O)(=O)c3cc(Cl)cc(Cl)c3)cnc3c(F)cccc23)c1 | 2.31 mL/min/g |
